In PubChem BioAssay AID1963432 (Molecular Pharmacology Branch, DTP, NCI, 2024):
“And” between values parts separate entries of the source, which are not always exact repeats. Equal entries are not always repeated.

Test system: SYO-1 complex spheroid growth, percent test/control
Test: Anticancer human tumor SYO-1 cell line growth inhibition [Asc];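 also: compound exposure lasted 7 days after spheroids grew 3 days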;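 as to viability, T/C: 100% = DMSO vehicle control viability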
Details: for viability, T/C: stronger effect = lower value
Method in brief: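 Stromal components (HUVEC and hMSC) are co-assembled with the cancer cells into multicellular spheroids. Drugs are then added singly or paired, at concentrations falling by half-log increments from a clinically achievable maximum, capped at 10 microM without known Cmax.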

[1] = curve of first compound, second compound 0.00949 µM
[2] = curve of first compound, second compound 0.03 µM
[3] = curve of first compound, second compound 0.0949 µM
[4] = curve of first compound, second compound 0.3 µM
[5] = curve of first compound, second compound 0.949 µM
[6] = curve of first compound, second compound 3 µM

Structure (SMILES): O=C(c1cc(Cc2n[nH]c(=O)c3ccccc23)ccc1F)N1CCN(C(=O)C2CC2)CC1 + CCN1C(C(=O)NC23CCC(C(=O)O)(CC2)CC3)C(c2cccc(Cl)c2F)C2(C(=O)Nc3cc(Cl)ccc32)C12CCCCC2
- IC50 [1]: 1840 nM
- IC50 [2]: 1130 nM
- IC50 [3]: 155 nM
- IC50 [4]: < 31.6 nM
- IC50 [5]: < 31.6 nM
- IC50 [6]: < 31.6 nM
- viability, T/C (second compound 0.00949 µM, first compound 0.0316 µM): 104%
- viability, T/C (second compound 0.00949 µM, first compound 0.1 µM): 93.4%
- viability, T/C (second compound 0.00949 µM, first compound 0.316 µM): 99.4%
- viability, T/C (second compound 0.00949 µM, first compound 1 µM): 92%
- viability, T/C (second compound 0.00949 µM, first compound 3.16 µM): 12.9%
- viability, T/C (second compound 0.00949 µM, first compound 10 µM): 4.28%
- viability, T/C (second compound 0.03 µM, first compound 0.0316 µM): 102%
- viability, T/C (second compound 0.03 µM, first compound 0.1 µM): 89.3%
- viability, T/C (second compound 0.03 µM, first compound 0.316 µM): 92.4%
- viability, T/C (second compound 0.03 µM, first compound 1 µM): 55.2%
- viability, T/C (second compound 0.03 µM, first compound 3.16 µM): 6.53%
- viability, T/C (second compound 0.03 µM, first compound 10 µM): 4.33%
- viability, T/C (second compound 0.0949 µM, first compound 0.0316 µM): 71.7%
- viability, T/C (second compound 0.0949 µM, first compound 0.1 µM): 54.1%
- viability, T/C (second compound 0.0949 µM, first compound 0.316 µM): 40.9%
- viability, T/C (second compound 0.0949 µM, first compound 1 µM): 12.4%
- viability, T/C (second compound 0.0949 µM, first compound 3.16 µM): 4.71%
- viability, T/C (second compound 0.0949 µM, first compound 10 µM): 3.12%
- viability, T/C (second compound 0.3 µM, first compound 0.0316 µM): 9.88%
- viability, T/C (second compound 0.3 µM, first compound 0.1 µM): 9.34%
- viability, T/C (second compound 0.3 µM, first compound 0.316 µM): 8.44%
- viability, T/C (second compound 0.3 µM, first compound 1 µM): 4.25%
- viability, T/C (second compound 0.3 µM, first compound 3.16 µM): 4.23%
- viability, T/C (second compound 0.3 µM, first compound 10 µM): 2.9%
- viability, T/C (second compound 0.949 µM, first compound 0.0316 µM): 1.89%
- viability, T/C (second compound 0.949 µM, first compound 0.1 µM): 1.57%
- viability, T/C (second compound 0.949 µM, first compound 0.316 µM): 3.08%
- viability, T/C (second compound 0.949 µM, first compound 1 µM): 2.92%
- viability, T/C (second compound 0.949 µM, first compound 3.16 µM): 2.34%
- viability, T/C (second compound 0.949 µM, first compound 10 µM): 1.51%
- viability, T/C (second compound 3 µM, first compound 0.0316 µM): 1.11%
- viability, T/C (second compound 3 µM, first compound 0.1 µM): 1.24%
- viability, T/C (second compound 3 µM, first compound 0.316 µM): 2.68%
- viability, T/C (second compound 3 µM, first compound 1 µM): 1.1%
- viability, T/C (second compound 3 µM, first compound 3.16 µM): 1.22%
- viability, T/C (second compound 3 µM, first compound 10 µM): 1%

Structure (SMILES): Cc1nc(N2CCC3(CC2)COC(C)C3N)c(CO)nc1Sc1ccnc(N)c1Cl (stereo unspecified) + CCN1C(C(=O)NC23CCC(C(=O)O)(CC2)CC3)C(c2cccc(Cl)c2F)C2(C(=O)Nc3cc(Cl)ccc32)C12CCCCC2
- IC50 [1]: > 3000 nM
- IC50 [2]: > 3000 nM
- IC50 [3]: > 3000 nM
- IC50 [4]: < 9.49 nM
- IC50 [5]: < 9.49 nM
- IC50 [6]: < 9.49 nM
- viability, T/C (second compound 0.00949 µM, first compound 0.00949 µM): 111%
- viability, T/C (second compound 0.00949 µM, first compound 0.03 µM): 103%
- viability, T/C (second compound 0.00949 µM, first compound 0.0949 µM): 112%
- viability, T/C (second compound 0.00949 µM, first compound 0.3 µM): 109%
- viability, T/C (second compound 0.00949 µM, first compound 0.949 µM): 116%
- viability, T/C (second compound 0.00949 µM, first compound 3 µM): 114%
- viability, T/C (second compound 0.03 µM, first compound 0.00949 µM): 111%
- viability, T/C (second compound 0.03 µM, first compound 0.03 µM): 103%
- viability, T/C (second compound 0.03 µM, first compound 0.0949 µM): 108%
- viability, T/C (second compound 0.03 µM, first compound 0.3 µM): 99.7%
- viability, T/C (second compound 0.03 µM, first compound 0.949 µM): 117%
- viability, T/C (second compound 0.03 µM, first compound 3 µM): 117%
- viability, T/C (second compound 0.0949 µM, first compound 0.00949 µM): 82.8%
- viability, T/C (second compound 0.0949 µM, first compound 0.03 µM): 81.1%
- viability, T/C (second compound 0.0949 µM, first compound 0.0949 µM): 86.8%
- viability, T/C (second compound 0.0949 µM, first compound 0.3 µM): 91.2%
- viability, T/C (second compound 0.0949 µM, first compound 0.949 µM): 96.9%
- viability, T/C (second compound 0.0949 µM, first compound 3 µM): 83.3%
- viability, T/C (second compound 0.3 µM, first compound 0.00949 µM): 24.3%
- viability, T/C (second compound 0.3 µM, first compound 0.03 µM): 19.9%
- viability, T/C (second compound 0.3 µM, first compound 0.0949 µM): 23.2%
- viability, T/C (second compound 0.3 µM, first compound 0.3 µM): 17.4%
- viability, T/C (second compound 0.3 µM, first compound 0.949 µM): 17.4%
- viability, T/C (second compound 0.3 µM, first compound 3 µM): 10.9%
- viability, T/C (second compound 0.949 µM, first compound 0.00949 µM): 3.59%
- viability, T/C (second compound 0.949 µM, first compound 0.03 µM): 2.68%
- viability, T/C (second compound 0.949 µM, first compound 0.0949 µM): 3.26%
- viability, T/C (second compound 0.949 µM, first compound 0.3 µM): 1.67%
- viability, T/C (second compound 0.949 µM, first compound 0.949 µM): 1.74%
- viability, T/C (second compound 0.949 µM, first compound 3 µM): 0.54%
- viability, T/C (second compound 3 µM, first compound 0.00949 µM): 0.99%
- viability, T/C (second compound 3 µM, first compound 0.03 µM): 1.08%
- viability, T/C (second compound 3 µM, first compound 0.0949 µM): 0.94%
- viability, T/C (second compound 3 µM, first compound 0.3 µM): 2.3%
- viability, T/C (second compound 3 µM, first compound 0.949 µM): 0.69%
- viability, T/C (second compound 3 µM, first compound 3 µM): 0.39%

Structure (SMILES): NC(=O)C(=Cn1cnc(-c2cc(C(F)(F)F)cc(C(F)(F)F)c2)n1)c1cncnc1
- viability, T/C (compound 0.000949 µM): 97.3% and 93.8% and 106%
- viability, T/C (compound 0.003 µM): 98.8% and 101% and 104%
- viability, T/C (compound 0.00949 µM): 97.4% and 98% and 95.6%
- viability, T/C (compound 0.03 µM): 96.9% and 95.8% and 107%
- viability, T/C (compound 0.0949 µM): 95.9% and 94.2% and 99.5%
- viability, T/C (compound 0.3 µM): 13.3% and 16.5% and 42.3%
- IC50 (curve of compound): 180 nM and 183 nM and 257 nM
